From patent US20230073777A1, “CYCLIC-AMP RESPONSE ELEMENT BINDING PROTEIN (CBP) AND/OR ADENOVIRAL E1A BINDING PROTEIN OF 300 KDA (P300) DEGRADATION COMPOUNDS AND METHODS OF USE” (CULLGEN (SHANGHAI), INC., priority 2019, published 2023) come the findings set out here.

Structures are written as SMILES. Some results are limits rather than exact numbers.

In one assay the test system is LNCaP cells. Briefly: LNCaP cell viability assay (CellTiter-Glo). The class given is cell-based. Conditions: for IC50: Homo sapiens, 72 h, LNCaP prostate cancer cell viability inhibition, 3 days; for viability of LNCaP cells: from 10 μM, 12-point 3-fold serial dilution, 3 days (FIG. 4). On the procedure: LNCaP cells seeded in 96-well plates were treated with 10 μM GNE-781 or selected bivalent compounds, i.e. P-001, P-002, and P-019, following a 12-point 3-fold serial dilution. Three days after treatment, cell viability was determined using the CellTiter-Glo kit (Promega) following manufacturer's instructions. Cell viability was normalized to the mean values of 3 replicates of untreated cells. Dose-dependent response was analyzed following the least-squares non-linear regression method using the GraphPad Prism 5.0 software.
LNCaP cells were treated with GNE-781 or selected bivalent compounds for 3 days at indicated concentrations following a 3-fold serial dilution.
Cells were seeded at a density of 5000 cells per well in 96-well assay plates and treated with test compounds following a 12-point 3-fold serial dilution. Three days later, cell viability was determined using the CellTiter-Glo assay kit according to the manufacturer's instructions. The dose-response curves were determined and IC50 values were calculated using the GraphPad Prism software following a nonlinear regression (least squares fit) method.
(Cellular ATP, detected with luciferase, serves as a proxy for viable cell number.)

The next assay addresses P300 (Homo sapiens, UniProt Q09472). As to the kind of experiment: Immunoblotting of P300 protein levels in LNCaP or 22RV1 cells. To be noted: percentage of inhibition of p300 at 10 nM (Table 2); read-out: Degradation (10 nM). In kind it is cell-based. More on the design: LNCaP or 22RV1 cells that express CBP/P300 proteins were treated with GNE-781 or the bivalent compounds; endogenous in cells; host or cells: LNCaP (clone FGC) or 22RV1 cells. On the procedure:
Specific exemplary bivalent compounds were characterized in LNCaP or 22RV1 cells. LNCaP or 22RV1 cells that express CBP/P300 proteins were treated with GNE-781 or the bivalent compounds disclosed herein (P-001 to P-174) for indicated hours. Cells were collected, lysed and subject to immunoblotting using an antibody specific to P300 or CBP proteins. Tubulin or vinculin was included as the loading control. DMSO was used as the negative control.
Cultured cells or tissue chunks were washed with cold PBS once and lysed in cold RIPA buffer supplemented with protease inhibitors and phosphatase inhibitors (Beyotime Biotechnology). The solutions were then incubated at 4° C. for 30 minutes with gentle agitation to fully lyse cells. Cell lysates were centrifuged at 13,000 rpm for 10 minutes at 4° C. and pellets were discarded. Total protein concentrations in the lysates were determined by BCA assays (Beyotime Biotechnology). Cell lysates were mixed with Laemmli loading buffer to 1× and heated at 99° C. for 5 min. Proteins were resolved on SDS-PAGE and visualized by chemiluminescence. Images were taken by a ChemiDoc MP Imaging system (Bio-Rad). Protein bands were quantitated using the accompanied software provided by Bio-Rad.
On the technique in general: Immunoblotting shows a protein as a band on a membrane.

Sequence of P300 (Q09472 whole entry): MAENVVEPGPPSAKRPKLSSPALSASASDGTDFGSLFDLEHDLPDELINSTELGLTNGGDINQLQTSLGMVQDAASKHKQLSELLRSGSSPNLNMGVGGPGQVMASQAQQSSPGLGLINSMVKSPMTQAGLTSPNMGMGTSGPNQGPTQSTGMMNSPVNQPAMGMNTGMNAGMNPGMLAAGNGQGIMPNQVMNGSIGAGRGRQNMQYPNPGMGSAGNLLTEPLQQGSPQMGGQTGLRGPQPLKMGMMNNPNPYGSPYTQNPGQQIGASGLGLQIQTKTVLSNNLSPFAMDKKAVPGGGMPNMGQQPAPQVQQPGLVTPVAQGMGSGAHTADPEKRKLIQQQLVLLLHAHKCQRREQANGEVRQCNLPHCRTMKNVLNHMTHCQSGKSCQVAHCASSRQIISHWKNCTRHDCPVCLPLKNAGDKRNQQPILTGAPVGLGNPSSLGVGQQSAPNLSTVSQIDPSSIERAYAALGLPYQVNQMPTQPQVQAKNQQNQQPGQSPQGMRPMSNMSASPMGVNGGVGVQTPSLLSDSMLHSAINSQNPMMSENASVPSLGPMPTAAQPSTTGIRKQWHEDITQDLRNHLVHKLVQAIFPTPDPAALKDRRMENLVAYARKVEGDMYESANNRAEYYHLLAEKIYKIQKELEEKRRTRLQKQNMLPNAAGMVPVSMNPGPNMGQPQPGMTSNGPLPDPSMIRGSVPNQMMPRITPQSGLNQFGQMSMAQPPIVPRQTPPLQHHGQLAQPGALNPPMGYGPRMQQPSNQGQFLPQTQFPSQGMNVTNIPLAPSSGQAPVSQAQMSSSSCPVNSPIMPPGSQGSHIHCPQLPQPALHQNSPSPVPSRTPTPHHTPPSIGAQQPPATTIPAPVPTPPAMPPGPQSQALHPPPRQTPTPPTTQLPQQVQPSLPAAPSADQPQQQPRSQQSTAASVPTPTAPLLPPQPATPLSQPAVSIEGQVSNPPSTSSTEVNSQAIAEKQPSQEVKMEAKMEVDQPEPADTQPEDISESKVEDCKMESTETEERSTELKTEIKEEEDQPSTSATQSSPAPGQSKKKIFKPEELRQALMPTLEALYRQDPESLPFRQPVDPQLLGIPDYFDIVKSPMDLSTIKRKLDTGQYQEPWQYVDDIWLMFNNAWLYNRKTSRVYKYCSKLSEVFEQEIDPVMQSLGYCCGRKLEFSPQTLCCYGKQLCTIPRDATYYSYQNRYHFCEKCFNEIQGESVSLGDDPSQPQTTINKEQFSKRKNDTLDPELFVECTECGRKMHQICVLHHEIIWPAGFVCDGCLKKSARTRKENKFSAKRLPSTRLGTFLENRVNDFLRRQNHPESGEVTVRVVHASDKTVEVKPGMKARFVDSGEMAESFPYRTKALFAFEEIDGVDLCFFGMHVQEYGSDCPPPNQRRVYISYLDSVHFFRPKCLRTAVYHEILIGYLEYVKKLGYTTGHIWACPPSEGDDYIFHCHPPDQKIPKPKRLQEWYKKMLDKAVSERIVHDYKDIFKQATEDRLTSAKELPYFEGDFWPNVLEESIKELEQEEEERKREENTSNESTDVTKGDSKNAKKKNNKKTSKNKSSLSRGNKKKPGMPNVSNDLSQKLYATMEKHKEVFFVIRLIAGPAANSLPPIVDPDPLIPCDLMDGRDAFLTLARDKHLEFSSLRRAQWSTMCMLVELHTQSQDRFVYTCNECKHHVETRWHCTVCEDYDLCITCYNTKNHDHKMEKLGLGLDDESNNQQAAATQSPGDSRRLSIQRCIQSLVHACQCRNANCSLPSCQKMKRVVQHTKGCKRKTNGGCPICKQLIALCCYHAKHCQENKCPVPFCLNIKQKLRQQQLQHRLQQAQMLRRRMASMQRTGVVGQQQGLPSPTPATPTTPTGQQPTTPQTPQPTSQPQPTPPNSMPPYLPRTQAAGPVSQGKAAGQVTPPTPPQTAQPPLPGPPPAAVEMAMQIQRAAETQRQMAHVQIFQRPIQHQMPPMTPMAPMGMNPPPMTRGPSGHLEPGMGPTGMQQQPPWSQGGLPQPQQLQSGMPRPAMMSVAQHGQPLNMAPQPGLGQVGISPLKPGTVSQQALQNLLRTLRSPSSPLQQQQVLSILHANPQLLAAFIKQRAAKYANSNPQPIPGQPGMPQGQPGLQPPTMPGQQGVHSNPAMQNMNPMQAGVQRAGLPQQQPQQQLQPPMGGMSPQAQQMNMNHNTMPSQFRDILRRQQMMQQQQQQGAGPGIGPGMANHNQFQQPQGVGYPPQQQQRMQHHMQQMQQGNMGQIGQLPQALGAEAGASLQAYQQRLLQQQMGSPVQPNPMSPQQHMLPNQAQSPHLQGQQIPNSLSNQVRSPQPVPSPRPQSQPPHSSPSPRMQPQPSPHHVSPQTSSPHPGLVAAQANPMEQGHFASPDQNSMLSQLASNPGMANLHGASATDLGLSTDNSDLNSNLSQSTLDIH

As to `CNC(=O)N1CCc2c(c(N3CCCc4cc(-c5cnn(CC(=O)NCCCCCCCCCC(=O)NC(C(=O)N6C[C@H](O)C[C@H]6C(=O)NCc6ccc(-c7scnc7C)cc6)C(C)(C)C)c5)c(C(F)F)cc43)nn2C2CCOCC2)C1` (stereo in doubt) [P-049, 3-(7-(Difluoromethyl)-6-(1-(2-((10-(((S)-1-((2S,4R)-4-hydroxy-2-((4-(4-methylthiazol-5-yl)benzyl)carbamoyl)pyrrolidin-1-yl)-3,3-dimethyl-1-oxobutan-2-yl)amino)-10-oxodecyl)amino)-2-oxoethyl)-1H-pyrazol-4-yl)-3,4-dihydroquinolin-1(2H)-yl)-N-methyl-1-(tetrahydro-2H-pyran-4-yl)-1,4,6,7-tetrahydro-5H-pyrazolo[4,3-c]pyridine-5-carboxamide], the IC50 (usually the concentration needed to halve the response being measured) with LNCaP cells (CellTiter-Glo (Table 2)) was 234 nM. Besides, the inhibition at 0.01 µM at P300 is less than 20%.

`CNC(=O)N1CCc2c(c(N3CCCc4cc(-c5cnn(C)c5)c(C(F)F)cc43)nn2C2CCN(C(=O)CNc3ccc4c(c3)C(=O)N(C3CCC(=O)NC3=O)C4=O)CC2)C1` (stereo not drawn) [P-001, 3-(7-(Difluoromethyl)-6-(1-methyl-1H-pyrazol-4-yl)-3,4-dihydroquinolin-1(2H)-yl)-1-(1-((2-(2,6-dioxopiperidin-3-yl)-1,3-dioxoisoindolin-5-yl)glycyl)piperidin-4-yl)-N-methyl-1,4,6,7-tetrahydro-5H-pyrazolo[4,3-c]pyridine-5-carboxamide]: in the assay with LNCaP cells (CellTiter-Glo (Table 2)), the half-maximal inhibitory concentration (IC50) was 185 nM. In addition, the “viability of LNCaP cells” value with LNCaP cells is reported as “dose-dependently suppressed viability”. Moreover, the inhibition at 0.01 µM on P300 is 50 to 80%.

In the assay with LNCaP cells (CellTiter-Glo (Table 2)), `CNC(=O)N1CCc2c(c(N3CCCc4cc(-c5cnn(C)c5)c(C(F)F)cc43)nn2C2CCN(C(=O)CCNc3ccc4c(c3)C(=O)N(C3CCC(=O)NC3=O)C4=O)CC2)C1` (stereo not drawn) [P-002, 3-(7-(Difluoromethyl)-6-(1-methyl-1H-pyrazol-4-yl)-3,4-dihydroquinolin-1(2H)-yl)-1-(1-(3-((2-(2,6-dioxopiperidin-3-yl)-1,3-dioxoisoindolin-5-yl)amino)propanoyl)piperidin-4-yl)-N-methyl-1,4,6,7-tetrahydro-5H-pyrazolo[4,3-c]pyridine-5-carboxamide] yielded a 50% inhibitory concentration (IC50) of 42.1 nM. In the assay with LNCaP cells, the “viability of LNCaP cells” value was “dose-dependently suppressed viability”. In addition, the inhibition at 0.01 µM on P300 is 50 to 80%.

In turn, `CNC(=O)N1CCc2c(c(N3CCCc4cc(-c5cnn(C)c5)c(C(F)F)cc43)nn2C2CCN(C(=O)CN3CCC(Nc4cccc5c4C(=O)N(C4CCC(=O)NC4=O)C5=O)CC3)CC2)C1` (stereo not drawn) [P-101, 3-(7-(Difluoromethyl)-6-(1-methyl-1H-pyrazol-4-yl)-3,4-dihydroquinolin-1(2H)-yl)-1-(1-(2-(4-((2-(2,6-dioxopiperidin-3-yl)-1,3-dioxoisoindolin-4-yl)amino)piperidin-1-yl)acetyl)piperidin-4-yl)-N-methyl-1,4,6,7-tetrahydro-5H-pyrazolo[4,3-c]pyridine-5-carboxamide] displayed an IC50 with LNCaP cells (CellTiter-Glo (Table 3)) of more than 1000 nM.

Turning to `CNC(=O)N1CCc2c(c(N3CCCc4cc(-c5cnn(C)c5)c(C(F)F)cc43)nn2C2CCN(C(=O)CN3CCC(C#Cc4cccc5c4C(=O)N(C4CCC(=O)NC4=O)C5=O)CC3)CC2)C1` (stereo not drawn) [P-103, 3-(7-(Difluoromethyl)-6-(1-methyl-1H-pyrazol-4-yl)-3,4-dihydroquinolin-1(2H)-yl)-1-(1-(2-(4-((2-(2,6-dioxopiperidin-3-yl)-1,3-dioxoisoindolin-4-yl)ethynyl)piperidin-1-yl)acetyl)piperidin-4-yl)-N-methyl-1,4,6,7-tetrahydro-5H-pyrazolo[4,3-c]pyridine-5-carboxamide], it took 146 nM to reach half-maximal inhibition with LNCaP cells (CellTiter-Glo (Table 3)) (IC50).

`CC(=O)N1CCc2c(c(N3CCCc4cc(-c5cnn(C)c5)c(C(F)F)cc43)nn2C2CCN(C3CCN(CCOc4cccc5c4C(=O)N(C4CCC(=O)NC4=O)C5=O)CC3)CC2)C1` (stereo not drawn) [P-134, 4-(2-(4-(5-Acetyl-3-(7-(difluoromethyl)-6-(1-methyl-1H-pyrazol-4-yl)-3,4-dihydroquinolin-1(2H)-yl)-4,5,6,7-tetrahydro-1H-pyrazolo[4,3-c]pyridin-1-yl)-[1,4′-bipiperidin]-1′-yl)ethoxy)-2-(2,6-dioxopiperidin-3-yl)isoindoline-1,3-dione] yielded an IC50 in the assay with LNCaP cells (CellTiter-Glo (Table 3)) of more than 500 nM.

Consider `CC(=O)N1CCc2c(c(N3CCCc4cc(-c5cnn(C)c5)c(C(F)F)cc43)nn2C2CCN(CCCCCC(=O)Nc3cccc4c3C(=O)N(C3CCC(=O)NC3=O)C4=O)CC2)C1` (stereo not drawn) [P-136, 6-(4-(5-Acetyl-3-(7-(difluoromethyl)-6-(1-methyl-1H-pyrazol-4-yl)-3,4-dihydroquinolin-1(2H)-yl)-4,5,6,7-tetrahydro-1H-pyrazolo[4,3-c]pyridin-1-yl)piperidin-1-yl)-N-(2-(2,6-dioxopiperidin-3-yl)-1,3-dioxoisoindolin-4-yl)hexanamide], for which the IC50 with LNCaP cells (CellTiter-Glo (Table 3)) was more than 500 nM.

`CNC(=O)N1CCc2c(c(N3CCCc4cc(-c5cnn(C)c5)c(C(F)F)cc43)nn2C2CCN(C(=O)CN3CCN(Cc4cccc5c4C(=O)N(C4CCC(=O)NC4=O)C5=O)CC3)CC2)C1` (stereo not drawn) [P-137, 3-(7-(Difluoromethyl)-6-(1-methyl-1H-pyrazol-4-yl)-3,4-dihydroquinolin-1(2H)-yl)-1-(1-(2-(4-((2-(2,6-dioxopiperidin-3-yl)-1,3-dioxoisoindolin-4-yl)methyl)piperazin-1-yl)acetyl)piperidin-4-yl)-N-methyl-1,4,6,7-tetrahydro-5H-pyrazolo[4,3-c]pyridine-5-carboxamide] gave an IC50 with LNCaP cells (CellTiter-Glo (Table 3)) of more than 500 nM.

In the assay on LNCaP cells (CellTiter-Glo (Table 3)), `CC(=O)N1CCc2c(c(N3CCCc4cc(-c5cnn(C)c5)c(C(F)F)cc43)nn2C2CCN(C(=O)CN3CCN(Cc4cccc5c4C(=O)N(C4CCC(=O)NC4=O)C5=O)CC3)CC2)C1` (stereo not drawn) [P-138, 4-((4-(2-(4-(5-Acetyl-3-(7-(difluoromethyl)-6-(1-methyl-1H-pyrazol-4-yl)-3,4-dihydroquinolin-1(2H)-yl)-4,5,6,7-tetrahydro-1H-pyrazolo[4,3-c]pyridin-1-yl)piperidin-1-yl)-2-oxoethyl)piperazin-1-yl)methyl)-2-(2,6-dioxopiperidin-3-yl)isoindoline-1,3-dione] gave an IC50 of more than 500 nM.

With `CC(=O)N1CCc2c(c(N3CCCc4cc(-c5cnn(C)c5)c(C(F)F)cc43)nn2C2CCN(C3CCN(CCCOc4cccc5c4C(=O)N(C4CCC(=O)NC4=O)C5=O)CC3)CC2)C1` (stereo not drawn) [P-139, 4-(3-(4-(5-Acetyl-3-(7-(difluoromethyl)-6-(1-methyl-1H-pyrazol-4-yl)-3,4-dihydroquinolin-1(2H)-yl)-4,5,6,7-tetrahydro-1H-pyrazolo[4,3-c]pyridin-1-yl)-[1,4′-bipiperidin]-1′-yl)propoxy)-2-(2,6-dioxopiperidin-3-yl)isoindoline-1,3-dione], the half-maximal inhibitory concentration (IC50) with LNCaP cells (CellTiter-Glo (Table 3)) is more than 500 nM.

`CC(=O)N1CCc2c(c(N3CCCc4cc(-c5cnn(C)c5)c(C(F)F)cc43)nn2C2CCN(C3CN(CCCOc4cccc5c4C(=O)N(C4CCC(=O)NC4=O)C5=O)C3)CC2)C1` (stereo not drawn) [P-140, 4-(3-(3-(4-(5-Acetyl-3-(7-(difluoromethyl)-6-(1-methyl-1H-pyrazol-4-yl)-3,4-dihydroquinolin-1(2H)-yl)-4,5,6,7-tetrahydro-1H-pyrazolo[4,3-c]pyridin-1-yl)piperidin-1-yl)azetidin-1-yl)propoxy)-2-(2,6-dioxopiperidin-3-yl)isoindoline-1,3-dione] yielded an IC50 with LNCaP cells (CellTiter-Glo (Table 3)) of more than 500 nM.

`CNC(=O)N1CCc2c(c(N3CCCc4cc(-c5cnn(C)c5)c(C(F)F)cc43)nn2C2CCN(CCN3CCN(Cc4cccc5c4C(=O)N(C4CCC(=O)NC4=O)C5=O)CC3)CC2)C1` (stereo not drawn) [P-144, 3-(7-(Difluoromethyl)-6-(1-methyl-1H-pyrazol-4-yl)-3,4-dihydroquinolin-1(2H)-yl)-1-(1-(2-(4-((2-(2,6-dioxopiperidin-3-yl)-1,3-dioxoisoindolin-4-yl)methyl)piperazin-1-yl)ethyl)piperidin-4-yl)-N-methyl-1,4,6,7-tetrahydro-5H-pyrazolo[4,3-c]pyridine-5-carboxamide]: the IC50 in the assay with LNCaP cells (CellTiter-Glo (Table 3)) is more than 1000 nM.

The compound `CC(=O)N1CCc2c(c(N3CCCc4cc(-c5cnn(C)c5)c(C(F)F)cc43)nn2C2CCN(CCN3CCN(Cc4cccc5c4C(=O)N(C4CCC(=O)NC4=O)C5=O)CC3)CC2)C1` (stereo not drawn) [P-145, 4-((4-(2-(4-(5-Acetyl-3-(7-(difluoromethyl)-6-(1-methyl-1H-pyrazol-4-yl)-3,4-dihydroquinolin-1(2H)-yl)-4,5,6,7-tetrahydro-1H-pyrazolo[4,3-c]pyridin-1-yl)piperidin-1-yl)ethyl)piperazin-1-yl)methyl)-2-(2,6-dioxopiperidin-3-yl)isoindoline-1,3-dione] had an IC50 with LNCaP cells (CellTiter-Glo (Table 3)) of more than 1000 nM.
